These results are taken from paper PMC9940855, “First-in-Class Dual Hybrid Carbonic Anhydrase Inhibitors and Transient Receptor Potential Vanilloid 1 Agonists Revert Oxaliplatin-Induced Neuropathy” (Journal of Medicinal Chemistry, 2023).

One assay concerns the target T1, TRPV1 receptor (Homo sapiens, UniProt Q8NER1).
T1 construct: expressed in transfected cells
In words: TRPV1 assay, Fluo-4NW fluorescence in SH-SY5Y-TRPV1 cells. It counts as cell-based. To be noted: read-out: EC50 on TRPV1 receptor activity (agonism). Here is the method: SH-SY5Y-TRPV1 cells (kindly provided by Johanna Lilja and Anna Forsby (University of Stockholm, Stockholm, Sweden))[40] were cultured in 96 wells. Upon 90% confluence had been reached, the cells were loaded with 5 μM Fluo-4NW for 1 h at 37 °C. […] Briefly, after measuring the basal fluorescence of the plate (four cycles), testing compounds were added to the plate, and the fluorescence was measured for additional 10 cycles; thereafter, 10 μM capsaicin was added with a microinjector and the fluorescence was monitored for an additional 10 cycles.

The next assay addresses hCA I (Homo sapiens, UniProt P00915). To be noted: read-out: KI hCA I; stopped-flow CO2 hydrase assay; mean from three different assays, errors ±5–10%.
The next assay addresses hCA VII (Homo sapiens, UniProt P43166). To be noted: read-out: KI hCA VII; stopped-flow CO2 hydrase assay; mean from three different assays, errors ±5–10%.
A further assay addresses hCA XII (Homo sapiens, UniProt O43570). The note with it: read-out: KI hCA XII; stopped-flow CO2 hydrase assay; mean from three different assays, errors ±5–10%.
Another assay addresses T2, hCA IX (Homo sapiens, UniProt Q16790).
T2 construct: made in house
Format: biochemical.

The next assay concerns the target hCA II (Homo sapiens, UniProt P00918). The note with it: for Ki: read-out: KI hCA II, stopped-flow CO2 hydrase assay, mean from three different assays, errors ±5–10%.
In a further assay the target is hCA IV (Homo sapiens, UniProt P22748). To be noted: read-out: KI hCA IV; stopped-flow CO2 hydrase assay; mean from three different assays, errors ±5–10%.
For assay [1], the system named is oxaliplatin-induced neuropathic pain (cold allodynia). The experiment in a line: Cold plate test in mouse model of oxaliplatin-induced neuropathic pain. Format: in vivo. To be noted: p.o., acute; for pain-relieving effect (licking latency, Cold plate test), in words: 10–100 mg/kg; for time of peak pain-relieving effect post-administration: up to 100 mg/kg.

Entries after “also recorded” stand apart in the source; their conditions may differ.

The term EC50 denotes the midpoint of the concentration-response curve. In general, Ki refers to a dissociation constant, usually derived from enzyme kinetics or from competition with a known ligand.

Chain of hCA IV (P22748 19-312): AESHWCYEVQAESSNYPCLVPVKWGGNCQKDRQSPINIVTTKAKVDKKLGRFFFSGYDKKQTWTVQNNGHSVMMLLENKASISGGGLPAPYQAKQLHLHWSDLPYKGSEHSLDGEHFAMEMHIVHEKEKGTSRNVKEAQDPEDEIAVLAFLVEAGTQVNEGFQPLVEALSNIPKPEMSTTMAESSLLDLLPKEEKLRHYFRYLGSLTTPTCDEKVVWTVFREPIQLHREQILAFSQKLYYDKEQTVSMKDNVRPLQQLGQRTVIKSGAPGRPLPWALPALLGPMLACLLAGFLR
Chain of hCA I (P00915 whole entry): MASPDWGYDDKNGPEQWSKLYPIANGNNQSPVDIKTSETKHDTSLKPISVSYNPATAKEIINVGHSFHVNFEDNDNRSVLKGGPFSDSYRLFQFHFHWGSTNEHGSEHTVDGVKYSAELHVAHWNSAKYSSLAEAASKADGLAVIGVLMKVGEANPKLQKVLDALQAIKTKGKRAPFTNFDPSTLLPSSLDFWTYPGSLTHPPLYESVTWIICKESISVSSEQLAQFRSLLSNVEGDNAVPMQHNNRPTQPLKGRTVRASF
T1 sequence (Q8NER1 whole entry): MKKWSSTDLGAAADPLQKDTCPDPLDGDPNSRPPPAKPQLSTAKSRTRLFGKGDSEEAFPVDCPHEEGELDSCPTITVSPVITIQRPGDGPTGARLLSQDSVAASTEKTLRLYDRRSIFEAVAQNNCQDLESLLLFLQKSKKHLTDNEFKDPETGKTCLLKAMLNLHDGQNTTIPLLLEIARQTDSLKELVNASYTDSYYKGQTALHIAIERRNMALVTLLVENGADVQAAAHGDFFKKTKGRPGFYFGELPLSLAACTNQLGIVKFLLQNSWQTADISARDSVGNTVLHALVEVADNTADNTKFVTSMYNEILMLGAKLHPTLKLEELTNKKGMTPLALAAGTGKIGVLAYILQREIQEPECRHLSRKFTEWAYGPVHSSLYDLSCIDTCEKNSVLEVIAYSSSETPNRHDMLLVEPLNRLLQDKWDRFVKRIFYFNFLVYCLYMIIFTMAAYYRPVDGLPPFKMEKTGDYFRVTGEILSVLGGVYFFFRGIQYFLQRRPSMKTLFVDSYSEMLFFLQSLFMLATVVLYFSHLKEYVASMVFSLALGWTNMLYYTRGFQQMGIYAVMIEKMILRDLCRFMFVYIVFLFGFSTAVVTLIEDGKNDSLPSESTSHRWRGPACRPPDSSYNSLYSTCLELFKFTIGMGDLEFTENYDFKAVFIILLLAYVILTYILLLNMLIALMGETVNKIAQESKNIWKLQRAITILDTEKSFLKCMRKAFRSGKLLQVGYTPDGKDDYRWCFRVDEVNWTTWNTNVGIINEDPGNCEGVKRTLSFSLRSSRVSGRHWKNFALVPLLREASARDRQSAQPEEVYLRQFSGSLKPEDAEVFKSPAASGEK
Chain of hCA VII (P43166 whole entry): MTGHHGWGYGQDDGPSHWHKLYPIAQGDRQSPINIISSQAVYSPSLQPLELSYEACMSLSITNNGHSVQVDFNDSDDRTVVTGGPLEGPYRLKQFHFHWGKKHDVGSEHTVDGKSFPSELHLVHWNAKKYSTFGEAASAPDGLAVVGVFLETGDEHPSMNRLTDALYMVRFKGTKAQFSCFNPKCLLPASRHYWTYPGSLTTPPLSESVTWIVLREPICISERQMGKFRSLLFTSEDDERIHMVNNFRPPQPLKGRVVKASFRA
Chain of hCA XII (O43570 25-354): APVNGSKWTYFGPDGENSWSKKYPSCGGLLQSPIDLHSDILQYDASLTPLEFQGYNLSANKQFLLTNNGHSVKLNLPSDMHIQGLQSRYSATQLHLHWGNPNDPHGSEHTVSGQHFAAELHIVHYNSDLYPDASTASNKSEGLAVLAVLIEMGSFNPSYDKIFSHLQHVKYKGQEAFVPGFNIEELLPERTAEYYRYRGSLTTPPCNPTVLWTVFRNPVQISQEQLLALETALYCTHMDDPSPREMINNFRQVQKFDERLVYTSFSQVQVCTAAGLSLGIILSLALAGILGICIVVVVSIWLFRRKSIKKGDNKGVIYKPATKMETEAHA

Take `NS(=O)(=O)c1ccc(N2CC[C@@H](NC(=O)Nc3ccc([N+](=O)[O-])cc3)C2)nc1` [19a, (R)-6-(3-(3-(4-Nitrophenyl)ureido)pyrrolidin-1-yl)pyridine-3-sulfonamide]: the EC50 on TRPV1 receptor was above 100 µM. Moreover, the Ki on hCA I came out at 0.252 µM; on hCA VII, 0.0561 µM; on hCA XII, 0.0574 µM; at hCA IX, 0.145 µM; at hCA II, 0.437 µM.

Take `NS(=O)(=O)c1cccc(NC(=O)N[C@@H]2CCN(c3ccc(C(F)(F)F)cn3)C2)c1` [46a, (R)-3-(3-(1-(5-(Trifluoromethyl)pyridin-2-yl)pyrrolidin-3-yl)ureido)benzenesulfonamide]: the concentration for a half-maximal effect (EC50) on TRPV1 receptor stood at 37.3 µM. Further, the Ki was 0.199 µM on hCA I, 0.0066 µM on hCA XII and 0.0084 µM on hCA II.

As to `NS(=O)(=O)c1ccc(N2CC[C@@H](NC(=O)Nc3ccc(Cl)c(Cl)c3)C2)nc1` [14a, (R)-6-(3-(3-(3,4-Dichlorophenyl)ureido)pyrrolidin-1-yl)pyridine-3-sulfonamide], on TRPV1 receptor, the EC50 was above 100 µM. Further, the Ki on hCA VII was 0.0265 µM; on hCA XII it was 0.0072 µM; on hCA IV, 4.9 µM; at hCA II, 0.0822 µM.

With `NS(=O)(=O)c1ccc(NC(=S)N[C@@H]2CCN(c3ccccn3)C2)cc1` [35a, (R)-4-(3-(1-(Pyridin-2-yl)pyrrolidin-3-yl)thioureido)benzenesulfonamide], the EC50 at TRPV1 receptor is above 100 µM. For the same molecule, the Ki amounted to 0.048 µM at hCA I; 0.0097 µM on hCA VII; 0.009 µM at hCA XII; 0.774 µM on hCA IV; 0.0096 µM at hCA IX.

Turning to `NS(=O)(=O)c1cccc(NC(=S)N[C@@H]2CCN(c3cccc([N+](=O)[O-])n3)C2)c1` [38a, (R)-3-(3-(1-(6-Nitropyridin-2-yl)pyrrolidin-3-yl)thioureido)benzenesulfonamide], the EC50 on TRPV1 receptor came to 44.2 µM. Besides, the inhibitory constant (Ki) on hCA I is 0.0785 µM; on hCA VII, 0.0836 µM; on hCA XII it was 0.238 µM; at hCA IV, 0.238 µM; at hCA IX it was 0.162 µM; on hCA II it was 0.0086 µM.

As to `NS(=O)(=O)c1ccc(N2CC[C@@H](NC(=O)Nc3ccc(F)cc3)C2)nc1` [7a, (R)-6-(3-(3-(4-Fluorophenyl)ureido)pyrrolidin-1-yl)pyridine-3-sulfonamide], the concentration for a half-maximal effect (EC50) on TRPV1 receptor is above 100 µM. In addition, the Ki was 0.0066 µM on hCA VII; 0.0593 µM on hCA XII; 2.66 µM at hCA IV; 0.0322 µM at hCA IX; 0.0151 µM at hCA II.

Turning to `NS(=O)(=O)c1ccc(N2CC[C@@H](NC(=O)Nc3ccc(Cl)c(C(F)(F)F)c3)C2)nc1` [10a, (R)-6-(3-(3-(4-Chloro-3-(trifluoromethyl)phenyl)ureido)pyrrolidin-1-yl)pyridine-3-sulfonamide], the EC50 at TRPV1 receptor was found to be 74.5 µM. The inhibitory constant (Ki) on hCA I is 0.788 µM; at hCA VII it was 0.0786 µM; at hCA IV, 4.02 µM; on hCA IX, 0.737 µM.

For `NS(=O)(=O)c1ccc(NC(=S)N[C@@H]2CCN(c3cccc([N+](=O)[O-])n3)C2)cc1` [37a, (R)-4-(3-(1-(6-Nitropyridin-2-yl)pyrrolidin-3-yl)thioureido)benzenesulfonamide], the EC50 on TRPV1 receptor was 8 µM. The “pain-relieving effect (licking latency, Cold plate test), in words” value in assay [1] (day 15) was “more potent and effective than (R)-12a”. Moreover, the “time of peak pain-relieving effect post-administration” value in assay [1] (Cold plate test) is listed as 30 min. Further, the inhibitory constant (Ki) on hCA I came out at 0.0748 µM; on hCA VII, 0.175 µM; on hCA XII, 0.409 µM; at hCA IV, 0.471 µM; at hCA IX, 0.0168 µM; at hCA II, 0.0067 µM. For the same molecule, the “fold higher efficacy in inhibiting CA II over (R)-12a” value at hCA II (ratio of Ki) is recorded as 10.4 fold.

In the case of `NS(=O)(=O)c1ccc(N2CC[C@@H](NC(=O)Nc3ccccc3Cl)C2)nc1` [12a, (R)-6-(3-(3-(2-Chlorophenyl)ureido)pyrrolidin-1-yl)pyridine-3-sulfonamide], the 50% effective concentration (EC50) on TRPV1 receptor turned out to be 11.9 µM. The inhibition constant Ki at hCA I came out at 0.0825 µM; on hCA VII, 0.0735 µM; at hCA XII, 0.0836 µM; at hCA IV, 3 µM; at hCA IX it was 0.316 µM.

On to `NS(=O)(=O)c1cccc(NC(=S)N[C@@H]2CCN(c3ccccn3)C2)c1` [36a, (R)-3-(3-(1-(Pyridin-2-yl)pyrrolidin-3-yl)thioureido)benzenesulfonamide], for which, at TRPV1 receptor, the EC50 is above 100 µM. In addition, the Ki on hCA I was 0.0851 µM; on hCA VII, 0.0554 µM; on hCA IV it was 0.32 µM; on hCA II it was 0.0096 µM.

With `COc1ccccc1NC(=O)N[C@@H]1CCN(c2ccc(S(N)(=O)=O)cn2)C1` [18a, (R)-6-(3-(3-(2-Methoxyphenyl)ureido)pyrrolidin-1-yl)pyridine-3-sulfonamide], the EC50 at TRPV1 receptor was above 100 µM. For the same molecule, the Ki on hCA I stood at 0.0735 µM; on hCA VII, 0.0687 µM; on hCA XII, 0.0722 µM; on hCA IV, 5.08 µM; on hCA IX, 0.0361 µM; on hCA II, 0.287 µM.

As to `NS(=O)(=O)c1ccc(N2CC[C@@H](NC(=O)Nc3ccc4c(c3)OCCO4)C2)nc1` [15a, (R)-6-(3-(3-(2,3-Dihydrobenzo[b][1,4]dioxin-6-yl)ureido)pyrrolidin-1-yl)pyridine-3-sulfonamide], the EC50 on TRPV1 receptor is above 100 µM. The Ki at hCA I stood at 0.0722 µM; on hCA VII, 0.0094 µM; on hCA XII it was 0.0067 µM; at hCA IV it was 3.56 µM; at hCA IX, 0.192 µM; at hCA II it was 0.0502 µM.

With `NS(=O)(=O)c1ccc(N2CC[C@@H](NC(=O)Nc3c(F)cc(F)cc3Br)C2)nc1` [22a, (R)-6-(3-(3-(2-Bromo-4,6-difluorophenyl)ureido)pyrrolidin-1-yl)pyridine-3-sulfonamide], the EC50 at TRPV1 receptor was above 100 µM. Moreover, the Ki on hCA VII turned out to be 0.0411 µM; at hCA XII it was 0.0081 µM; on hCA IV it was 4.88 µM; on hCA II it was 0.446 µM.

For `NS(=O)(=O)c1ccc(N2CC[C@@H](NC(=S)Nc3ccccc3F)C2)nc1` [21a, (R)-6-(3-(3-(2-Fluorophenyl)thioureido)pyrrolidin-1-yl)pyridine-3-sulfonamide], the EC50 at TRPV1 receptor was above 100 µM. Moreover, the inhibition constant (Ki) stood at 0.0313 µM on hCA I; 0.0083 µM at hCA XII; 3.09 µM at hCA IV; 0.378 µM on hCA IX; 0.0149 µM on hCA II.

For the molecule `NS(=O)(=O)c1ccc(NC(=O)N[C@@H]2CCN(c3cccc([N+](=O)[O-])n3)C2)cc1` [43a, (R)-4-(3-(1-(6-Nitropyridin-2-yl)pyrrolidin-3-yl)ureido)benzenesulfonamide], the EC50 on TRPV1 receptor is above 100 µM. Moreover, the “pain-relieving effect (licking latency, Cold plate test), in words” value in assay [1] (day 15, listed as (R)-43a) is “dose-dependent effectiveness; also recorded: moderate and shorter relieving outcomes”. Also, the “time at which the effect was suppressed” value in assay [1] (Cold plate test) stood at 75 min. Further, the “time of peak pain-relieving effect post-administration” value in assay [1] (Cold plate test) came out at 45 min. Moreover, the inhibition constant (Ki) was 0.0683 µM on hCA I; 0.164 µM on hCA VII; 0.0837 µM at hCA XII; 2.29 µM on hCA IV; 0.0936 µM at hCA IX; 0.0075 µM at hCA II.
